In patent publication US11324725B2, “Compositions and methods for the inhibition of pruritus” (The United States of America, as represented by the …, priority 2017, dated 2022):
Entries after “also recorded” stand apart in the source; their conditions may differ.

Key:
[1] = Rat liver microsome stability assay; assay type: in vitro ADME; conditions: pH 7.4; rat liver microsomes
Procedure: Single time point microsomal stability was determined in a 96-well HTS format. Sample preparation was automated using an EVO 200 robot (Tecan, Switzerland). A high-resolution LC/MS (Thermo QExactive, ThermoFisher (Waltham, Mass.)) instrument was used to measure the percentage of compound remaining after incubation using a known method. Six standard controls were tested in each run: buspirone and propranolol (for short half-life), loperamide and diclofenac (for short to medium half-life), and carbamazepine and antipyrine (for long half-life). Briefly, the incubation consisted of 0.5 mg/mL microsomal protein, 1.0 μM compound concentration, and NADPH regeneration system (containing 0.650 mM NADP+, 1.65 mM glucose 6-phosphate, 1.65 mM MgCl2, and 0.2 U/mL G6PDH) in 100 mM phosphate buffer at pH 7.4. The incubation was carried out at 37° C. for 15 min. The reaction was quenched by adding 555 μL of acetonitrile (1:2 ratio) containing 0.28 μM albendazole (internal standard).

[2] = test system: C57BL/6N mice; test: Acute scratching behavior, histamine-induced; assay type: in vivo, mouse; conditions: 163 μg i.p., 10 minutes before 100 μg histamine into nape of neck; bouts per 30 minutes
Procedure: (§1) All experiments using mice followed NIH guidelines and were approved by the National Institute of Dental and Craniofacial Research ACUC. Behavioral assessment of scratching behavior was conducted as follows: 6-8-week old female C57BL/6N mice (Envigo) were injected intraperitoneally with JS-11 (163 μg) or DMSO (20%) as a vehicle control. Ten minutes later, 100 μg histamine diluted in 10 μl PBS or 8.9 μg CYM5442 diluted in 10 μl ddH2O was injected subcutaneously into the nape of the neck. Scratching behavior was recorded for 30 minutes and is presented in bouts per 30 minutes. One bout was defined as scratching behavior towards the injection site between lifting the hind leg from the ground and either putting it back on the ground or guarding the paw with the mouth. To control for motor impairment by JS-11, rota-rod performance was also assessed 10 minutes after intraperitoneal injection.

[3] = test system: C57BL/6N mice; test: Contact hypersensitivity (DNFB) model of chronic scratching; assay type: in vivo, mouse; conditions: 163 μg i.p.
Procedure: The contact hypersensitivity model was performed as follows: the back of 6-8-week old female C57BL/6N mice (Envigo) was shaved with electric clippers. After 2 days, 25 μl of 0.5% (v/v) dinitro-fluoro-benzene (DNFB) diluted in a 4:1 mixture of acetone and olive oil was applied to the shaved back skin. Hapten challenge was performed 5 days after sensitization by applying 40 μl of 0.2% (v/v) DNFB in the same vehicle on the left ear and 40 μl of vehicle alone on the right ear. […] Mice were then injected intraperitoneally with JS-11 (163 μg) or DMSO (20%) as a vehicle control. After 10 minutes, scratching was again observed for 30 minutes. To assess skin inflammation, ear thickness was measured with a thickness gauge (Mitutoyo, Aurora, Ill.) before and 30 minutes after JS-11/DMSO injections and normalized to ear thickness before hapten challenge.

[4] = Kinetic solubility assay (μSOL); assay type: physicochemical; conditions: pH 7.4
Procedure: The μSOL assay was used for kinetic solubility determination, as described in Avdeef, et al., “Drug absorption in vitro model: filter-immobilized artificial membranes. 2. Studies of the permeability properties of lactones in Piper methysticum Forst,” Eur J Pharm Sci 14, 271-280 (2001), which is incorporated by reference herein. In this assay, the classical saturation shake-flask solubility method was adapted as described. Test compounds were prepared as 10 mM DMSO stock solutions and diluted to a final compound concentration of 150 μM in aqueous solution (pH 7.4, 100 mM phosphate buffer). Samples were incubated at room temperature for 6 hours and vacuum-filtered using Te-Vac (Tecan, Morrisville, N.C.) to remove any precipitates. The concentration of the compound in the filtrate was measured via UV absorbance (k 250-498 nm). The unknown compound concentration was determined by comparing the fully solubilized reference plate which contained 17 μM of compound dissolved in spectroscopically pure n-propanol. All compounds were tested in duplicates. The kinetic solubility (μg/mL) of compounds was calculated using the pSOL Evolution software (Pion Inc., Billerica, Mass.). The three controls used were albendazole (low solubility), phenazolpyridine (moderate solubility) and furosemide (high solubility).

[5] = Parallel artificial membrane permeability assay (PAMPA); assay type: in vitro ADME; conditions: pH 7.4
From the text: Stirring double-sink PAMPA method was employed to determine the permeability of compounds via PAMPA. The PAMPA lipid membrane consisted of an artificial membrane of a proprietary lipid mixture and dodecane (Pion Inc., Billerica, Mass.), optimized to predict gastrointestinal tract passive permeability. The lipid was immobilized on a plastic matrix of a 96-well “donor” filter plate placed above a 96-well “acceptor” plate. pH 7.4 solution was used in both donor and acceptor wells. The test articles, stocked in 10 mM DMSO solutions, were diluted to 0.05 mM in aqueous buffer (pH 7.4), and the concentration of DMSO was 0.5% in the final solution. During the 30-minute permeation period at room temperature, the test samples in the donor compartment were stirred using the Gutbox technology (Pion Inc.) to reduce the aqueous boundary layer. The test article concentrations in the donor and acceptor compartments were measured using a UV plate reader (Nano Quant, Infinite® 200 PRO, Tecan). Permeability calculations were performed using Pion Inc. software and were expressed in units of 10-6 cm/s. Compounds with low or weak UV signal were analyzed using high resolution LC/MS (Thermo QExactive, Thermo Fisher).

[6] = test system: C57BL/6N mice; test: Rotarod performance and gross behavior after JS-11; assay type: in vivo, mouse
Procedure: as §1

With Cc1cc(CNC(=O)c2ccc3c(c2)n(CC2CC2)c(=O)n3C2CCCCC2)on1 [JS-11, 1-cyclohexyl-3-(cyclopropylmethyl)-N-((3-methylisoxazol-5-yl)methyl)-2-oxo-2,3-dihydro-1H-benzo[d]imidazole-5-carboxamide] the half-life at 1 μM [1] was 12.4 min, the “Scratching responses to histamine” value [2] was “reduced scratching responses to histamine by more than half; also recorded: significantly attenuated” and the “Skin inflammation (% ear thickness) after hapten challenge” value ([3]; measured before and 30 minutes after injection) was “had no effect on skin inflammation; also recorded: no differences in % ear thickness were detectable”. The Hapten-induced scratching responses ([3]; scratching observed 30 minutes, from 10 minutes after injection) was “attenuated hapten-induced scratching responses by about a half; also recorded: significantly reduced”, the water solubility [4] was “relatively high-water solubility” and the Papp at 30 min, 0.05 mM [5] was 7.4 ×10⁻⁶ cm/s. For the same compound, the Overall mouse behavior ([6]; 163 μg intraperitoneally) was “no gross change in overall mouse behavior” and the “Motor coordination (rotarod performance)” value ([6]; 10 minutes after 163 μg JS-11 intraperitoneally) was “no impairment of motor coordination; also recorded: not significantly altered”.
